# Test results reported in the NIST ThermoML archive (doi:10.1016/j.jct.2011.01.017).
# Numbers after ± are expanded uncertainties.
# Conditions: Liquid, DSC
structure (smiles),measurement,setting,value
CCCCCCCC/C=C\CCCCCCCC(=O)OCC [ethyl (Z)-9-octadeceneoate],vapor or sublimation pressure,486.64 K,1.33 ± 0.16 kPa
same,vapor or sublimation pressure,500.98 K,2.67 ± 0.17 kPa
same,vapor or sublimation pressure,508.03 K,4 ± 0.21 kPa
same,vapor or sublimation pressure,514.61 K,5.33 ± 0.2 kPa
same,vapor or sublimation pressure,523.69 K,6.67 ± 0.2 kPa
same,vapor or sublimation pressure,528.56 K,8 ± 0.21 kPa
same,vapor or sublimation pressure,536.83 K,9.33 ± 0.19 kPa
CCCCCCCCCCCC(=O)OCC [ethyl dodecanoate],vapor or sublimation pressure,420.05 K,1.33 ± 0.17 kPa
same,vapor or sublimation pressure,432.13 K,2.67 ± 0.17 kPa
same,vapor or sublimation pressure,443.41 K,4 ± 0.18 kPa
same,vapor or sublimation pressure,451.05 K,5.33 ± 0.21 kPa
same,vapor or sublimation pressure,456.47 K,6.67 ± 0.23 kPa
same,vapor or sublimation pressure,462.44 K,8 ± 0.29 kPa
same,vapor or sublimation pressure,464.35 K,9.33 ± 0.57 kPa
CCCCCCCCCCCCCCCC(=O)OCC [ethyl hexadecanoate],vapor or sublimation pressure,464.49 K,1.33 ± 0.15 kPa
same,vapor or sublimation pressure,481.9 K,2.67 ± 0.16 kPa
same,vapor or sublimation pressure,495.23 K,4 ± 0.17 kPa
same,vapor or sublimation pressure,502.27 K,5.33 ± 0.22 kPa
same,vapor or sublimation pressure,508.1 K,6.67 ± 0.25 kPa
same,vapor or sublimation pressure,512.23 K,8 ± 0.33 kPa
same,vapor or sublimation pressure,515.13 K,9.33 ± 0.39 kPa
CCCCC/C=C\C/C=C\CCCCCCCC(=O)OCC [ethyl linoleate],vapor or sublimation pressure,486.64 K,1.33 ± 0.16 kPa
same,vapor or sublimation pressure,501.94 K,2.67 ± 0.16 kPa
same,vapor or sublimation pressure,510.65 K,4 ± 0.21 kPa
same,vapor or sublimation pressure,515.7 K,5.33 ± 0.25 kPa
same,vapor or sublimation pressure,520.91 K,6.67 ± 0.23 kPa
same,vapor or sublimation pressure,527.47 K,8 ± 0.19 kPa
same,vapor or sublimation pressure,537.39 K,9.33 ± 0.18 kPa
CCCCCCCCCCCCCCCCCC(=O)OCC [ethyl octadecanoate],vapor or sublimation pressure,490.97 K,1.33 ± 0.16 kPa
same,vapor or sublimation pressure,505.55 K,2.67 ± 0.17 kPa
same,vapor or sublimation pressure,512.98 K,4 ± 0.2 kPa
same,vapor or sublimation pressure,520.56 K,5.33 ± 0.23 kPa
same,vapor or sublimation pressure,524.45 K,6.67 ± 0.4 kPa
same,vapor or sublimation pressure,525.78 K,8 ± 0.81 kPa
same,vapor or sublimation pressure,533.97 K,9.33 ± 0.19 kPa
CCCCCCCCCCCCCC(=O)OCC [ethyl tetradecanoate],vapor or sublimation pressure,446.06 K,1.33 ± 0.16 kPa
same,vapor or sublimation pressure,460.03 K,2.67 ± 0.17 kPa
same,vapor or sublimation pressure,470.26 K,4 ± 0.19 kPa
same,vapor or sublimation pressure,476.75 K,5.33 ± 0.24 kPa
same,vapor or sublimation pressure,481.32 K,6.67 ± 0.25 kPa
same,vapor or sublimation pressure,487.01 K,8 ± 0.24 kPa
same,vapor or sublimation pressure,492.47 K,9.33 ± 0.24 kPa
